Reference: patent US11485987B2, “Methods for inducing bioorthogonal reactivity” (University of Delaware, priority 2015, dated 2022)

Key:
F41A APEX2 = target: T1, F41A APEX2 (Glycine max, UniProt Q43758, A134P/E112K/K14D/W41A); assay: Oxidation of DHT by F41A APEX2, UV-Vis initial rates and kinetic parameters; type: biochemical; details: for Initial rate of oxidation of DHT by F41A APEX2 + SOD: SOD 1 μM, PBS, 100 μM EDTA, first 100 s
T1 sequence (Q43758 1-250 A134P/E112K/K14D/W41A): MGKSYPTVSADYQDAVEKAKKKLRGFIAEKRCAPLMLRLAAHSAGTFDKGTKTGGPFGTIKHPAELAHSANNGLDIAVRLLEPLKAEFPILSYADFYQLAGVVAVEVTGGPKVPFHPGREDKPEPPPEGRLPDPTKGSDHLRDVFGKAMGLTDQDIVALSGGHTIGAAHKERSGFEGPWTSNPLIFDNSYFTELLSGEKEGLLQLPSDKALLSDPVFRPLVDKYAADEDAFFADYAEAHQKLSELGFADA
Description: UV-Vis and fluorescence measurements were conducted in quartz cuvettes. All reactions were conducted in phosphate buffered saline (PBS) containing 100 μM EDTA with a pH=7.4. The PBS was prepared by adding 25 mM phosphate salts (Na2HPO4 and NaH2PO4), 100 mM NaCl, 100 μM EDTA to DI water. EDTA was added to quench free metals that can oxidize DHT. The buffer was pH adjusted to 7.4 using 1 mM HCl and 1 mM NaOH. UV experiments were stirred at 25° C. in a temperature-controlled cuvette holder of the spectrophotometer. Solutions of 15 or 16 were prepared from methanol stock solutions.
SOD (1 μM) was added to PBS containing 100 μM EDTA. 15 or 16 (60 μM) was added from methanol stock solutions. After 10s, APEX2 (SEQ ID NO:1) or F41A APEX2 (275 nM) was dosed in and oxidation was monitored at 325 nm for 15 and 285 nm for 16 at 60s intervals.
The initial rate of oxidation was calculated from the first 100 seconds after APEX2 (SEQ ID NO:1) or F41A APEX2 was added ([…]). In the assays where SOD was added, SOD (1 μM) was added to PBS containing 100 μM EDTA and 15 or 16 was dosed in. 10 seconds later, APEX2 (SEQ ID NO:1) or F41A APEX2 ([…]) was added and the rate of oxidation was calculated from the first 100 seconds after APEX2 (SEQ ID NO:1) or F41A APEX2 ([…]) addition. The initial rate of oxidation was adjusted to background oxidation of DHT in PBS with 100 μM EDTA. Kinetic parameters (Table 2) were determined using GraphPad's Prism 6 software from the data presented below (Table 3-4).

A19V D222G APEX2 = assay: Oxidation of 15 by APEX2 variant A19V D222G APEX2; type: biochemical; details: 15 40 μM, enzyme 275 nM, PBS with EDTA
Description: 15 (40 μM) from methanol stock solutions was added to PBS containing […] EDTA. After 10s, APEX2 (275 nM) was dosed in and oxidation was monitored at 325 nm for 15. The procedure stated above was repeated for F41A APEX2 and A19V D222G APEX2. (FIG. 17).

[1] = Dihydrotetrazine oxidative stability (UV-vis); type: physicochemical
Description: A challenge to the development of catalytic methods for turning on the tetrazine ligation was the identification of a DHTz/Tz pair that would be stable in both oxidation states (FIG. 1, panel B). For most redox couples, either the DHTz is too readily oxidized in air (e.g., 1), or the Tz is too reactive toward water and other nucleophiles (e.g., 2). The inventors show here that the dipyridyl DHTz/Tz pair (3/4) has good stability in both states (FIG. 1, panel C). Dihydrotetrazines 3 are highly resistant toward background oxidation in organic solvents, and a number of derivatives have been synthesized and shown stable even to silica gel chromatography. […] Aqueous solutions of 3a were handled in glassware that had been first rinsed with 2.0 mM EDTA in PBS to remove adventitious metal impurities. After standing in the dark at 25° C. in PBS buffer, a solution of 3a was monitored by UV-vis and shown to retain 99 and 96% of the DHTz oxidation state over 30 min and 2.5 hours respectively. […] In PBS containing 10% mouse serum, 90% of 3a was retained in the DHTz oxidation state after 1 h. Analogs of tetrazines 4 have been described previously and used broadly for applications in nuclear medicine and cell imaging. […] The stability of a radiolabeled derivative of tetrazine 4b has been studied by Robillard at 37° C. in PBS, serum and blood, with 97%, 87% and 59% retention of the tetrazine observed after 2 hours.
A solution (3 mL) containing 3a (35 μM) in PBS buffer was prepared in a cuvette from stock solutions. Oxidation was monitored by recording solution absorbance at 0, 30 and 150 minutes. The cuvette was stored in the dark between measurements. Comparison of HRP, cytochrome C and hemoglobin: Solutions (1 mL) of 3a (30 μM) in PBS buffer were prepared in a cuvette from stock solutions. To the solutions, either hemoglobin ([…]) or cytochrome C (9 μM) were added and while oxidation was monitored every 30 seconds by measuring absorbance at 325 nm.

[2] = target: T2, horseradish peroxidase (HRP) (Armoracia rusticana, UniProt P00433); assay: Horseradish peroxidase (HRP) catalyzed oxidation of DHTz to tetrazine; type: biochemical; details: [3a] 8 μM; HRP 15 nM; first 10 seconds
T2 sequence (P00433 31-338): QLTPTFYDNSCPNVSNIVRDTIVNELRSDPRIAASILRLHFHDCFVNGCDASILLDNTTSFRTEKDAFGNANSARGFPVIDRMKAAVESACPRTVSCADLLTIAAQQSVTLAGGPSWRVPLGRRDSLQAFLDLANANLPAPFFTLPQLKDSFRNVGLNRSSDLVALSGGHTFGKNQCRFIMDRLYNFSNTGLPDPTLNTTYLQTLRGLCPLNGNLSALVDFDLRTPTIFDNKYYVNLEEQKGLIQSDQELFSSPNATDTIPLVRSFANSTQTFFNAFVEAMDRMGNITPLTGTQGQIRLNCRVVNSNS

[3] = DHTz stability in PBS containing 10% mouse serum; type: in vitro ADME; details: 1 h
Description: A challenge to the development of catalytic methods for turning on the tetrazine ligation was the identification of a DHTz/Tz pair that would be stable in both oxidation states (FIG. 1, panel B). For most redox couples, either the DHTz is too readily oxidized in air (e.g., 1), or the Tz is too reactive toward water and other nucleophiles (e.g., 2). The inventors show here that the dipyridyl DHTz/Tz pair (3/4) has good stability in both states (FIG. 1, panel C). Dihydrotetrazines 3 are highly resistant toward background oxidation in organic solvents, and a number of derivatives have been synthesized and shown stable even to silica gel chromatography. […] Aqueous solutions of 3a were handled in glassware that had been first rinsed with 2.0 mM EDTA in PBS to remove adventitious metal impurities. After standing in the dark at 25° C. in PBS buffer, a solution of 3a was monitored by UV-vis and shown to retain 99 and 96% of the DHTz oxidation state over 30 min and 2.5 hours respectively. […] In PBS containing 10% mouse serum, 90% of 3a was retained in the DHTz oxidation state after 1 h. Analogs of tetrazines 4 have been described previously and used broadly for applications in nuclear medicine and cell imaging. […]

O=C(O)CCCC(=O)Nc1ccc(C2=NNC(c3ccccn3)=NN2)nc1 [compound 15]
Initial rate of oxidation of DHT by F41A APEX2 + SOD (F41A APEX2; DHT 5 μM): 1.080 +/− 0.113 ×10^−8 M/s | Initial rate of oxidation of DHT by F41A APEX2 + SOD (F41A APEX2; DHT 10 μM): 2.625 +/− 0.177 ×10^−8 M/s | Initial rate of oxidation of DHT by F41A APEX2 + SOD (F41A APEX2; DHT 15 μM): 2.549 +/− 0.145 ×10^−8 M/s | Initial rate of oxidation of DHT by F41A APEX2 + SOD (F41A APEX2; DHT 20 μM): 3.629 +/− 0.413 ×10^−8 M/s | Initial rate of oxidation of DHT by F41A APEX2 + SOD (F41A APEX2; DHT 25 μM): 3.863 +/− 0.163 ×10^−8 M/s | Initial rate of oxidation of DHT by F41A APEX2 + SOD (F41A APEX2; DHT 30 μM): 5.019 +/− 0.089 ×10^−8 M/s | Initial rate of oxidation of DHT by F41A APEX2 + SOD (F41A APEX2; DHT 40 μM): 5.758 +/− 0.855 ×10^−8 M/s | Initial rate of oxidation of DHT by F41A APEX2 + SOD (F41A APEX2; DHT 50 μM): 5.978 +/− 0.304 ×10^−8 M/s | Initial rate of oxidation of DHT by F41A APEX2 + SOD (F41A APEX2; DHT 60 μM): 7.688 +/− 0.698 ×10^−8 M/s | Initial rate of oxidation of DHT by F41A APEX2 + SOD (F41A APEX2; DHT 70 μM): 7.685 +/− 0.869 ×10^−8 M/s | Initial rate of oxidation of DHT by F41A APEX2 + SOD (F41A APEX2; DHT 75 μM): 10.059 +/− 0.594 ×10^−8 M/s | Initial rate of oxidation of DHT by F41A APEX2 + SOD (F41A APEX2; DHT 85 μM): 12.425 +/− 0.046 ×10^−8 M/s | factor of increase of rate of catalysis versus APEX2 (SEQ ID NO:1) (F41A APEX2; F41A APEX2 mutant with SOD): 7 | oxidation by A19V D222G APEX2 (tetrazine formation at 325 nm) (A19V D222G APEX2): can oxidize 15

O=C(O)CCC(=O)Nc1ccc(C2=NNC(c3ccccn3)=NN2)nc1 [3a, 4-oxo-4-((6-(6-(pyridin-2-yl)-1,4-dihydro-1,2,4,5-tetrazin-3-yl)pyridin-3-yl)amino)butanoic Acid]
retained DHTz oxidation state ([1]; 35 μM in MeOH, ambient light, 1 hour): 99% | retained DHTz oxidation state ([1]; 35 μM in MeOH, ambient light, 2 hours): 98% | retained DHTz oxidation state ([1]; PBS buffer, ambient light, 25° C., 1 hour): 97% | retained DHTz oxidation state ([1]; PBS buffer, ambient light, 25° C., 2 hours): 94% | retained DHTz oxidation state ([1]; PBS buffer, dark, 25° C., 30 min): 99% | retained DHTz oxidation state ([1]; PBS buffer, dark, 25° C., 2.5 hours): 96% | Rate of HRP Oxidation of 3a [2]: 3.4e-08 M/s | retained in the DHTz oxidation state [3]: 90%
